Assay results reported in patent publication US11638764B2, “Theranostic capture agents, compositions, and methods of using and making” (Indi Molecular, Inc., priority 2018, dated 2023).
Bridge positions count the residues as written; N and C are the ends. Square brackets hold non-standard residues; d marks the D form. Triazole bridges read from a SMILES are 1,4-linked. Ends that are not written are not given here. Peptide text beside a SMILES is read from it. Lys(N3) = [N-]=[N+]=NCCCC[C@H](N)C(=O)O; Pra = C#CC[C@H](N)C(=O)O

Assays:
full length PSMA protein = target: T1, full length PSMA protein (Homo sapiens, UniProt Q04609); experiment: Bead screen with 50 nM full length PSMA protein; format: binding; details: beads that did not bind LNCaP cells
T1 construct: were incubated with 50 nM full length PSMA protein
Text: Some beads were lost during this screen. Most beads turned purple. […] These will be evaluated further by calculating their binding affinities by docking against the screened epitopes 2C, 6, and 7. Clustering analysis was used to identify some interesting sequences. Sequences found in the periphery (pkvrd (SEQ ID NO:27), frvkd (SEQ ID NO:28), dyksk (SEQ ID NO:32), Grkpf (SEQ ID NO:35), kwndd (SEQ ID NO:36), tkGne (SEQ ID NO:39), kvetd (SEQ ID NO:41), neGfd (SEQ ID NO:42), ekfld (SEQ ID NO:43), dkkaw (SEQ ID NO:44), veyGn (SEQ ID NO:45)) are generally preferred because they are more interesting chemically.

recombinant PSMA = recombinant PSMA (Homo sapiens, UniProt Q04609); experiment: ELISA against recombinant PSMA protein; format: binding
Text: (§1) Hits resulting from the epitope 2 screen were also profiled by ELISA and flow.
(§2) Hits resulting from the epitope 3 screen were scaled up and subjected to ELISA and flow experiments.
(§3) Hits resulting from the epitope 4 screen were also profiled in ELISA and flow cytometry.
(§4) To increase the throughput of the screening step, three epitopes were mixed and screened against the pre-cleared library. PSMA epitopes 2C, 6, and 7 were mixed and picked by either an ImmPACT Vector Red or BCIP/NBT dye (FIG. 11). The ImmPACT Vector Red screen identified the hit peptide ehtye (SEQ ID NO:22). […] Further epitope selectivity can be deconvoluted via a single epitope orientation assay.

LNCaP cells (PSMA+) = experiment: Flow cytometry binding to PSMA+ cells; format: cell-based
Text: as §1, §2, §3, §4

PC3 (PSMA−) cells = experiment: Flow cytometry binding to PSMA- cells; format: cell-based
Text: as §1, §2, §4

[1] = tested on: LNCaP cells (a PSMA+ cell line); experiment: LNCaP cell adherence to hit beads; format: cell-based; details: on-bead peptide
CD8 = experiment: ELISA selectivity over an unrelated protein; format: binding
[2] = target: T2, His-PSMA (Sino Biological) (Homo sapiens, UniProt Q04609); experiment: ELISA, PSMA immobilized via His-tag, PCC titrated in solution; format: binding; details: biotin-PEG10-PEG10-peptide ligands
T2 construct: purchased Sino Biological
Experimental: (§5) Epitope 5 hits were tested for binding to PSMA by ELISA (PSMA immobilized; PCC titrated in solution). Two immobilization strategies were employed: a His-tag and Myc-Flag tag (His-PSMA (Sino Biological) and PSMA-Myc-Flag (Origene)).

PSMA-Myc-Flag (Origene) = target: T3, PSMA-Myc-Flag (Origene) (Homo sapiens, UniProt Q04609); experiment: ELISA, PSMA immobilized via Myc-Flag tag, PCC titrated in solution; format: binding; details: biotin-PEG10-PEG10-peptide ligands
T3 construct: purchased Origene
Experimental: as §5

recombinant PSMA, sequence (Q04609 whole entry): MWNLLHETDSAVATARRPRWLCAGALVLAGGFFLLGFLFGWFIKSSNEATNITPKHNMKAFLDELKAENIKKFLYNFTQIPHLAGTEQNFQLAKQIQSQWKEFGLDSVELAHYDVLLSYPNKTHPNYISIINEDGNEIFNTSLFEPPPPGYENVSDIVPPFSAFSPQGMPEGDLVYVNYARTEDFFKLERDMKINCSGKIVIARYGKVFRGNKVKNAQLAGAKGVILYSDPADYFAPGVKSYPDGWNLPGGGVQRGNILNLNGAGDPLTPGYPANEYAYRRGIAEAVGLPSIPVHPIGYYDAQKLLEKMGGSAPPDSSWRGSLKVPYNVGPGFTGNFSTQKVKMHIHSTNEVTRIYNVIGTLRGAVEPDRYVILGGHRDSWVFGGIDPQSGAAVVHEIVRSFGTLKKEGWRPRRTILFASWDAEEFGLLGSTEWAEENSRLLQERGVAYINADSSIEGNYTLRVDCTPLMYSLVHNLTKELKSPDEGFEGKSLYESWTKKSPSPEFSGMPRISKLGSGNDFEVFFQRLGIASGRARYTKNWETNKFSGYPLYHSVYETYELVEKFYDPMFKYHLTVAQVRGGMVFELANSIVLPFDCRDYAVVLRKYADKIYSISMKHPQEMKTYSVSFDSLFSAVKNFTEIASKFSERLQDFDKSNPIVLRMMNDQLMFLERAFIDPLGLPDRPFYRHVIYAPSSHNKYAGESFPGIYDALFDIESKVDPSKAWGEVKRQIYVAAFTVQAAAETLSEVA
T1 sequence (Q04609 whole entry): as above
T3 sequence (Q04609 whole entry): as above
T2 sequence (Q04609 whole entry): as above

| binding to recombinant PSMA by ELISA (recombinant PSMA) | Compound | binding to LNCaP (PSMA+) cells by flow (LNCaP cells (PSMA+)) | binding to PC3 / PSMA− cells by flow (PC3 (PSMA−) cells) | adherence of LNCaP cells to the bead [1] | also measured |
| --- | --- | --- | --- | --- | --- |
| no binding | dntwp: dark purple bead in full length PSMA screen ([dD][dN][dT][dW][dP]) | no binding | – | – | bead colour after incubation with PSMA protein (full length PSMA protein): darker than the others |
| – | ert dimer: dimer of epitope 2 hit ert, PEG10-ert-Tz-ert ([dE]-[dR]-[dT]; also: dimer: PEG10-ert-Tz-ert) | showed binding | showed binding | – | EC50 (recombinant PSMA; read-out: EC50 of binding to recombinant PSMA by ELISA): 769 nM |
| no binding | kwtsd: LNCaP-adherent bead hit2 (Table 8) ([dK][dW][dT][dS][dD]) | no binding | – | good adherence | – |
| – | ert: epitope 2A/2B hit1 (Table 3) ([dE]-[dR]-[dT]) | did not show binding | did not show binding | – | – |
| – | CC(=O)N[C@H]1Cc2cn(nn2)CCCC[C@@H](C(N)=O)NC(=O)[C@@H](Cc2c[nH]cn2)NC(=O)[C@@H](Cc2c[nH]cn2)NC(=O)[C@@H](CCCCN)NC(=O)[C@@H](Cc2ccccc2)NC(=O)[C@@H](CC(C)C)NC1=O [lfkhh] (Ac-[Pra][dL][dF][dK][dH][dH][Lys(N3)]-NH2; triazole 1-7; N-terminus and C-terminus assumed) | bound equally | bound equally | – | – |
| no binding | dwpve: LNCaP-adherent bead hit1 (Table 8) ([dD][dW][dP][dV][dE]) | no binding | – | good adherence | – |
| – | CC(=O)N[C@H]1Cc2cn(nn2)CCCC[C@@H](C(N)=O)NC(=O)[C@@H](Cc2c[nH]c3ccccc23)NC(=O)[C@@H](Cc2c[nH]c3ccccc23)NC(=O)[C@@H](CCC(=O)O)NC(=O)[C@@H](CCCNC(=N)N)NC(=O)[C@@H](Cc2c[nH]cn2)NC1=O [hreww] (Ac-[Pra][dH][dR][dE][dW][dW][Lys(N3)]-NH2; triazole 1-7; N-terminus and C-terminus assumed) | – | – | – | binding to PSMA by ELISA [2]: nanomolar binding affinity; binding to PSMA by ELISA (PSMA-Myc-Flag (Origene)): nanomolar binding affinity |

| Compound | binding to recombinant PSMA by ELISA (recombinant PSMA) | binding to LNCaP (PSMA+) cells by flow (LNCaP cells (PSMA+)) | binding to PC3 / PSMA− cells by flow (PC3 (PSMA−) cells) | adherence of LNCaP cells to the bead [1] | also measured |
| --- | --- | --- | --- | --- | --- |
| ehtye: hit of ImmPACT Vector Red screen against mixed epitopes 2C, 6, 7 ([dE][dH][dT][dY][dE]) | Binding to recombinant PSMA protein was achieved | – | increased binding to PSMA− cells | – | selectivity for PSMA over an unrelated protein (CD8) (CD8): good selectivity |
| svand: LNCaP-adherent bead hit3 (Table 8) ([dS][dV][dA][dN][dD]) | Binding to recombinant PSMA protein was achieved | modest | same binding to both PSMA+ and PSMA− cells | good adherence | selectivity for PSMA over an unrelated protein (CD8) (CD8): good selectivity |
